Results as given in paper PMC9848259 (Journal of Enzyme Inhibition and Medicinal Chemistry, 2023).
Like-named read-outs stand apart in the source and are kept apart here.

How the values were obtained:
[1] = biological target: T1, AChE (from the electric eel) (Electrophorus electricus, UniProt O42275); test: biochemical
T1 construct: purchased Sigma Aldrich
Experimental: (§3) The capacity of the novel cyclopentaquinoline hybrids to inhibit AChE (from the electric eel) and BuChE (from equine serum) were determined by the modified colorimetric Ellman’s method[38]^,[39]. Both enzymes, DTNB – Ellman’s reagent (5,5′-dithiobis-(2-nitrobenzoic acid)), acetyltiocholine iodide (ATCI) were obtained from Sigma Aldrich. AChE and BuChE samples in phosphate buffer (PBS) pH 8.0 were incubated in 96-well plates in the presence of the substrate (ATCI), 76 µl of DTNB and the tested compound at various concentration at room temperature for 10 min (AChE) or eight minutes (BuChE).

[2] = biological target: T2, BuChE (from equine serum) (Equus caballus, UniProt P81908); test: biochemical
T2 construct: purchased Sigma Aldrich; host or cells: equine serum
T2 sequence (P81908 whole entry): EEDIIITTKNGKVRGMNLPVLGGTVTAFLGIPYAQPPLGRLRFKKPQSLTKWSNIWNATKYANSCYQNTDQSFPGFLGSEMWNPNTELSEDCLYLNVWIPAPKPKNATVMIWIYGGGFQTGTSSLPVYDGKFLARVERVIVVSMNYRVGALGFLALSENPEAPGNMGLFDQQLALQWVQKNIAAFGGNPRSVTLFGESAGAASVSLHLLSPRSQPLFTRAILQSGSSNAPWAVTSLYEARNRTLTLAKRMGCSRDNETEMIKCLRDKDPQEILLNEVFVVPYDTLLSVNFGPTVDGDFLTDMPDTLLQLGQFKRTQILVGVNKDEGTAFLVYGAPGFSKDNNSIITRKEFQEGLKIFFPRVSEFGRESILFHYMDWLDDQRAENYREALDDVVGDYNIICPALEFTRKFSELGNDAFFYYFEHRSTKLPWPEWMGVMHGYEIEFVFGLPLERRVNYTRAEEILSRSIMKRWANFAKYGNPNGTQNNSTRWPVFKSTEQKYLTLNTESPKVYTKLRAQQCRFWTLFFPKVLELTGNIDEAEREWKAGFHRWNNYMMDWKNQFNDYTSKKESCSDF
Experimental: as §3

SH-SY5Y cells [3] = test: Neuroprotection against H2O2-induced oxidative stress, MTT test; format: cell-based, human; conditions: H2O2 100 µM
SH-SY5Y cells [4] = test: Neuroprotection against rotenone/oligomycin A, co-incubation, MTT test; format: cell-based, human; conditions: Rotenone/Oligomycin A 30/10 µM
[5] = In vivo acute oral toxicity (OECD 423); parameters: species or system mice; conditions: female, Balb/c, mouse, in vivo, OECD 423, read-out: LD50 cut-off
Experimental: (§1) Compound 3e was administered by the oral route (by gavage) in one of four fixed doses (5, 50, 300, 2000 mg/kg) for a given stage of the study. The results allow to classify the compound according to the Globally Harmonised Classification System for Chemical Substances and Mixtures (GHS). In addition, the LD50 cut-off values was determined. According to the figure from the OECD 423 guidelines, a maximum of six test stages can be performed. Three animals (female mice, Balb/c) took part in each stage, and the number of stages depends on the mortality of the animals, which is the final test parameter. The research was carried out on the basis of the agreement of the Local Ethical Committee for animal testing in Łódź No. 56/115 ŁB/2018.
(§2) After quarantine, handling, weighing and labelling, the compound 3e was given in a dose of 300 mg/kg (300 mg/kg is a dose used in the absence of information on the toxicity of the test substance. If 2–3 animals die after using this dose, compound will be given at a lower dose − 50 mg/kg. Last dose 5 mg/kg is used if after a dose of 50 mg/kg also 2–3 animals die. If no death occurs, or death of one animal, the compound is again administered to the stomach in the same dose 300 mg/kg, and […], a dose of 2000 mg/kg of body weight is used). The presence of a substance-dependent mortality of animals exposed at one stage determines the performance of the next stage of the study. After each dose, animals are observed for 14 days. […].

female mice, Balb/c = test: In vivo acute oral toxicity (OECD 423)
Experimental: as §1, §2

Aβ(1–42) aggregation = Aβ(1–42) aggregation (Homo sapiens, UniProt P05067); test: In vitro β-amyloid assay, Thioflavin T fluorescence; format: biochemical; conditions: ThT
Sequence of Aβ(1–42) aggregation (P05067 672-713 limits assumed): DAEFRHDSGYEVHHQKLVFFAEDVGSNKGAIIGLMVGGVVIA

Aβ42 = biological target: T3, Aβ42 (Homo sapiens, UniProt P05067); test: In cellulo β-amyloid assay, Th-S fluorescence in E. coli over-expressing Aβ42; format: cell-based, Escherichia coli; conditions: read-out: anti-amyloid (inhibition) capacity for Aβ42
T3 construct: expressed in transfected cells; host or cells: Escherichia coli BL21 (DE3), pET vector
T3 sequence (P05067 672-713): as the sequence (P05067 672-713 limits assumed) above
Experimental: Inhibition assay in Escherichia coli cells over-expressing amyloid proteins. […] Escherichia coli competent cells BL21 (DE3) were transformed with the required pET vectors carrying the DNA sequence of Aβ42 peptide. Because of the addition of the initiation codon ATG in front of genes, the over-expressed Aβ42 contains an additional methionine residue at their N terminus. For overnight culture preparation, a colony of BL21 (DE3) bearing the plasmid to be expressed was inoculated in 10 ml of M9 minimal medium containing 50 μg/ml of kanamycin at 37 °C. […] The bacterial culture was then grown at 37 °C, with orbital agitation of 250 rpm. When the cell density reached OD600nm–0.6, 980 μL of the culture were transferred into 1.5 ml conical tubes containing 10 μL of the compound to be tested dissolved in DMSO, and 10 μL of 100 mM isopropyl 1-thio-β-D-galactopyranoside (IPTG). The final concentration of the compound was set to 10 μM. The samples were grown overnight at 37 °C under agitation at 1400 rpm, using a Thermomixer (Eppendorf, Hamburg, Germany). […]
The fluorescence normalisation was carried out considering as 100% the Th-S fluorescence of the bacterial cells expressing Aβ42 in the absence of drug, and 0% the Th-S fluorescence of the bacterial cells non-expressing Aβ42 (in absence of the protein production inductor, IPTG). […]

[6] = pKa assay (spectrophotometric); format: physicochemical; conditions: potassium phosphate buffer series with methanol, 23 °C
Experimental: Potassium dihydrogen phosphate, potassium hydroxide and methanol (POCH) were used to prepare the buffer solution, as described previously. […]. The pH was measured in 23 °C by using a Mettler Toledo FiveEasy pH metre with a LE438 Lab pH electrode (Mettler Toledo). Our tested compound solution was 5 µM solution in methanol: water (1:1) mix.
Spectrophotometric measurement was performed in a 96-well plate using a Synergy H1 microplate reader (BioTek) with Gen5 software (BioTek). The full assay consisted of 35 UV spectrum measurements, one for each work buffer solution. For the assay, 180 μL sequent work buffer and 20 μL tested compound solution were added to each of 35 wells. For the blank, 200 μL sequent work buffer alone was added to each of 35 wells. The measurement was performed at 23 °C. The spectra were recorded from 280 nm to 380 nm in 1 nm steps. Concentrations were calculated based on the 332/343 nm and 343/332 nm ratio as described previously. The results were compared with computer calculations of pKa value obtained using chemicalize.com online software (ChemAxon 2018) and ACD/Percepta version 14.0.0 (Advanced Chemistry Development, Inc., Metropolitan Toronto, Canada).

LogP assay (RP-HPLC) = format: physicochemical; conditions: pH 11 mobile phases, read-out: logP Experimental
Experimental: Methanol (POCH) was used as an organic modifier. Demineralised water was purified in our faculty. The methanol and water solution were set at pH 11 using 30 mM Triethylamine (TEA) (Sigma Aldrich). Ten isocratic mobile phases were used in the calibration and assay. The first mobile phase contained 50% methanol solution with 30 mM TEA and 50% water solution with 30 mM TEA. Each subsequent mobile phase contained 5% more methanol solution: the final mobile phase consisted of […] solution mix. The method required uncharged substances to be used during analysis.
These substances were selected on the basis of their structural similarity to the test compounds. The stock solutions contained about 1 mg/ml of calibration compounds or test compounds. The injection concentration was 100 µg/ml, and the injection volume was 7 µl.
A Waters 600 HPLC system was used with a photodiode array detector (PDA). The detector was set at the respective optimum absorption wavelength for each compound. The system used an Xbridge C18 50 mm × 4.6 mm i.d., 3.5 µm, chromatographic column (Waters). Data acquisition and processing were performed on Waters Millennium software.
The assay was performed according to Chao Liang et al. with modification. […]
Test compound was eluted by all mobile phases. […] The logP value was read from the calibration curve. […]

[7] = means ± SD of three experiments

T1 sequence (O42275 24-633): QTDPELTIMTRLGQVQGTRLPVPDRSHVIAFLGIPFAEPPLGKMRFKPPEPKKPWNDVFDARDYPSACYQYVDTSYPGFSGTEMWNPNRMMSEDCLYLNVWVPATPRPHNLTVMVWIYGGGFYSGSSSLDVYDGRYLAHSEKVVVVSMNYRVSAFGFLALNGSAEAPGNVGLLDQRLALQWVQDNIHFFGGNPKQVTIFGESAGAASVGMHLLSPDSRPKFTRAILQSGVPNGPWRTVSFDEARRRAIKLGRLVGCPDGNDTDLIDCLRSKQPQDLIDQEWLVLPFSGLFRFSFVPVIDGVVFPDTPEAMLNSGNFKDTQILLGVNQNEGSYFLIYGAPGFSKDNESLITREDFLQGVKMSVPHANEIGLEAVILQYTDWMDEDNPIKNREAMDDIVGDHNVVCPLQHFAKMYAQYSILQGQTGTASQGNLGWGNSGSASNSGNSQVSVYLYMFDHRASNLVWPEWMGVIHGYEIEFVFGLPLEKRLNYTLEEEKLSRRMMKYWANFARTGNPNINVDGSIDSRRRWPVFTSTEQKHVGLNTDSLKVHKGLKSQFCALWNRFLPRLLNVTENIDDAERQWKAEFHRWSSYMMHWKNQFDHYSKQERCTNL

SMILES: O=C(NCCCCCCNc1c2c(nc3ccccc13)CCC2)c1cc(Cl)cc(Cl)c1 [Compound 3e]
- Selectivity for AChE ([1]; IC50(BuChE)/IC50(AChE)): 0.89
- IC50 [1, 7]: 131 ± 16 nM
- Selectivity for BuChE ([2]; IC50(AChE)/IC50(BuChE)): 1.13
- IC50 [2, 7]: 116 ± 6 nM
- % neuroprotection (SH-SY5Y cells [3]; compound 0.01 µM): 40.04%
- % neuroprotection (SH-SY5Y cells [3]; compound 0.1 µM): 79.34%
- % neuroprotection (SH-SY5Y cells [3]; compound 1 µM): 71%
- % neuroprotection (SH-SY5Y cells [4]; compound 0.0001 µM): 12.75%
- % neuroprotection (SH-SY5Y cells [4]; compound 0.001 µM): 8.67%
- % neuroprotection (SH-SY5Y cells [4]; compound 0.01 µM): 2.82%
- LD50 at 14 days [5]: 1000 mg/kg
- mortality (female mice, Balb/c; 300 mg/kg, first and second stages, 3 female Balb/c mice per stage): did not cause any death
- mortality (female mice, Balb/c; 2000 mg/kg, stage one, 3 mice): no animal died
- mortality (female mice, Balb/c; 2000 mg/kg, stage two, 3 mice): two died
- GHS classification (female mice, Balb/c; OECD 423): Category 4 GHS
- inhibition at 5 µM (Aβ(1–42) aggregation; 5 µM compound): 55.7 ± 4.7%
- inhibition at 10 µM (Aβ(1–42) aggregation; 10 µM compound): 62.7 ± 5.3%
- inhibition at 25 µM (Aβ(1–42) aggregation; 25 µM compound): 76.5 ± 3.7%
- inhibition at 50 µM (Aβ(1–42) aggregation; 50 µM compound): 79.8 ± 2.9%
- inhibition at 100 µM (Aβ(1–42) aggregation; 100 µM compound): 82.6 ± 1.7%
- inhibition at 10 µM (Aβ42): 52.4%
- pKa ([6]; read-out: pKa1 Experimental): 8.4
- pKa ([6]; read-out: pKa2 Experimental): 11.3
- chromatographic logP (LogP assay (RP-HPLC)): 5.44
